# Experimental data from US6525043B2, “Use of ion channel modulating agents” (NeuroSearch A/S, priority 1999, dated 2003).
# Target: T1, Intermediate-conductance Ca2+-activated K+ channels (IK channels) (Homo sapiens, UniProt O15554)
# T1 construct: expressed in transfected cells
# Assay: Whole-cell patch-clamp recording of ionic current through IK channels stably expressed in HEK293 cells
# Assay type: cell-based
# Conditions: hIK in HEK293 cells, voltage-ramps -100 to +100 mV, free Ca2+ 100 nM, room temperature
# Experimental: In this experiment the ionic current through Intermediate-conductance Ca^2+-activated K^+channels (IK channels) is recorded in the whole-cell mode of the patch-clamp technique.
# Intermediate-conductance Ca^2+-activated K^+ channels (IK channels) have been cloned from human placenta and stably expressed in HEK293 cells.
# Human IK (hIK) was excised from pT3T7 (GenBank Acc. No. N56819) using EcoR I and Not I and sub-cloned into the mammalian expression vector pNS1Z (NeuroSearch), a custom designed derivative of pcDNA3Zeo (InVitrogen) to give the plasmid construct pNS1Z13 hIK. HEK293 tissue culture cells were grown in DMEM (Dulbecco's Modified Eagle Medium) supplemented with 10% FCS (foetal calf serum) at 37° C. in 5% CO2. […]
# Experiments are carried out on one of several patch-clamp set-ups. […] Data are stored directly on the hard-disk and analysed by the IGOR software (Wavemetrics, Lake Oswega, Oreg., USA).
# The whole-cell configuration of the patch clamp technique is applied. […] Cell capacitance is electronically compensated and the resistance between the pipette and the cell interior (the series resistance, Rs) is measured and compensated for. […]
# The intracellular (pipette) solution has the following composition (conc. in mM): 144 KCl, 10 EGTA, 1.4 MgCl2, 5.17 CaCl2, and 10 HEPES (pH=7.2). The calculated free concentration of Ca^2+ in this solution is 100 nM and that of Mg^2+ is 1 mM. […]
row,SMILES,SC100 (Stimulating Concentration required to induce a 100% increase (doubling) in the basal current)
1,ON=C1c2ccccc2-c2ccccc21 [9H-9-fluorenone-oxime],0.08 µM
2,"c1ccc2c(c1)[nH]c1ccccc12 [Carbazole, carbazole]",0.2 µM
